Holding throughout (experiment): biochemical
Set-up in all cases: Eurofins recombinant human kinase profiling, remaining kinase activity as % of control, 10 uM ATP
What all share (conditions): ATP 10 uM; read-out: %Ctrl@10 μM

One assay concerns the target BrSK2(h) (Homo sapiens, UniProt Q8IWQ3). The essentials: (§1)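 Activity measured in a commercial panel of 401 recombinant human protein kinases run as a kinase profiling service.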
The target in another assay is MAP4K3(h) (Homo sapiens, UniProt Q8IVH8). The essentials: as §1
The target in another assay is CaMKK2(h) (Homo sapiens, UniProt Q96RR4). The essentials:
as §1

For the next assay, the target named is Ret(h) (Homo sapiens, UniProt P07949). The essentials: as §1
In a further assay the target is T1, DNA-PK(h) (Homo sapiens, UniProt P78527).
T1 construct: gene PRKDC
The essentials:
as §1

A further assay concerns the target Txk(h) (Homo sapiens, UniProt P42681). The essentials:
as §1

Another assay addresses T2, SAPK4(h) (Homo sapiens, UniProt O15264).
T2 construct: gene MAPK13
The essentials:
as §1

Another assay addresses T3, TrkA(h) (Homo sapiens, UniProt P04629).
T3 construct: gene NTRK1
The method in brief:
as §1

The target of another assay is BrSK1(h) (Homo sapiens, UniProt Q8TDC3). The essentials: as §1
The next assay concerns the target ErbB4(h) (Homo sapiens, UniProt Q15303). The method in brief:
as §1

Another assay has as its target T4, CHK1(h) (Homo sapiens, UniProt O14757).
T4 construct: gene CHEK1
The essentials: as §1

For another assay, the target named is NEK11(h) (Homo sapiens, UniProt Q8NG66). The essentials:
as §1

The next assay deals with SRPK1(h) (Homo sapiens, UniProt Q96SB4). The method in brief: as §1
The target of another assay is T5, PDGFRβ(h) (Homo sapiens, UniProt P09619).
T5 construct: gene PDGFRB
The essentials:
as §1

The next assay deals with Ret (V804L)(h) (Homo sapiens, UniProt P07949, V804L). The essentials: as §1
The target in a further assay is T6, IRE1(h) (Homo sapiens, UniProt O75460).
T6 construct: gene ERN1
The method in brief: as §1

The next assay deals with NLK(h) (Homo sapiens, UniProt Q9UBE8). The method in brief: as §1
For a further assay, the target named is T7, AMPKα1(h) (Homo sapiens, UniProt Q13131).
T7 construct: gene PRKAA1
The essentials:
as §1

Another assay concerns the target CLK3(h) (Homo sapiens, UniProt P49761). The method in brief:
as §1

The next assay concerns the target T8, PKBα(h) (Homo sapiens, UniProt P31749).
T8 construct: gene AKT1
The essentials: as §1

The target in the next assay is T9, GCK(h) (Homo sapiens, UniProt Q12851).
T9 construct: gene MAP4K2
The essentials: as §1

The target of another assay is T10, SAPK2a(T106M)(h) (Homo sapiens, UniProt Q16539, T106M).
T10 construct: gene MAPK14
The method in brief: as §1

Another assay has as its target Flt4(h) (Homo sapiens, UniProt P35916). The essentials:
as §1

This note sets out measurements from publication PMC9719519, “Non-classical ferroptosis inhibition by a small molecule targeting PHB2” (Nature Communications, 2022).

T1 sequence (P78527 whole entry): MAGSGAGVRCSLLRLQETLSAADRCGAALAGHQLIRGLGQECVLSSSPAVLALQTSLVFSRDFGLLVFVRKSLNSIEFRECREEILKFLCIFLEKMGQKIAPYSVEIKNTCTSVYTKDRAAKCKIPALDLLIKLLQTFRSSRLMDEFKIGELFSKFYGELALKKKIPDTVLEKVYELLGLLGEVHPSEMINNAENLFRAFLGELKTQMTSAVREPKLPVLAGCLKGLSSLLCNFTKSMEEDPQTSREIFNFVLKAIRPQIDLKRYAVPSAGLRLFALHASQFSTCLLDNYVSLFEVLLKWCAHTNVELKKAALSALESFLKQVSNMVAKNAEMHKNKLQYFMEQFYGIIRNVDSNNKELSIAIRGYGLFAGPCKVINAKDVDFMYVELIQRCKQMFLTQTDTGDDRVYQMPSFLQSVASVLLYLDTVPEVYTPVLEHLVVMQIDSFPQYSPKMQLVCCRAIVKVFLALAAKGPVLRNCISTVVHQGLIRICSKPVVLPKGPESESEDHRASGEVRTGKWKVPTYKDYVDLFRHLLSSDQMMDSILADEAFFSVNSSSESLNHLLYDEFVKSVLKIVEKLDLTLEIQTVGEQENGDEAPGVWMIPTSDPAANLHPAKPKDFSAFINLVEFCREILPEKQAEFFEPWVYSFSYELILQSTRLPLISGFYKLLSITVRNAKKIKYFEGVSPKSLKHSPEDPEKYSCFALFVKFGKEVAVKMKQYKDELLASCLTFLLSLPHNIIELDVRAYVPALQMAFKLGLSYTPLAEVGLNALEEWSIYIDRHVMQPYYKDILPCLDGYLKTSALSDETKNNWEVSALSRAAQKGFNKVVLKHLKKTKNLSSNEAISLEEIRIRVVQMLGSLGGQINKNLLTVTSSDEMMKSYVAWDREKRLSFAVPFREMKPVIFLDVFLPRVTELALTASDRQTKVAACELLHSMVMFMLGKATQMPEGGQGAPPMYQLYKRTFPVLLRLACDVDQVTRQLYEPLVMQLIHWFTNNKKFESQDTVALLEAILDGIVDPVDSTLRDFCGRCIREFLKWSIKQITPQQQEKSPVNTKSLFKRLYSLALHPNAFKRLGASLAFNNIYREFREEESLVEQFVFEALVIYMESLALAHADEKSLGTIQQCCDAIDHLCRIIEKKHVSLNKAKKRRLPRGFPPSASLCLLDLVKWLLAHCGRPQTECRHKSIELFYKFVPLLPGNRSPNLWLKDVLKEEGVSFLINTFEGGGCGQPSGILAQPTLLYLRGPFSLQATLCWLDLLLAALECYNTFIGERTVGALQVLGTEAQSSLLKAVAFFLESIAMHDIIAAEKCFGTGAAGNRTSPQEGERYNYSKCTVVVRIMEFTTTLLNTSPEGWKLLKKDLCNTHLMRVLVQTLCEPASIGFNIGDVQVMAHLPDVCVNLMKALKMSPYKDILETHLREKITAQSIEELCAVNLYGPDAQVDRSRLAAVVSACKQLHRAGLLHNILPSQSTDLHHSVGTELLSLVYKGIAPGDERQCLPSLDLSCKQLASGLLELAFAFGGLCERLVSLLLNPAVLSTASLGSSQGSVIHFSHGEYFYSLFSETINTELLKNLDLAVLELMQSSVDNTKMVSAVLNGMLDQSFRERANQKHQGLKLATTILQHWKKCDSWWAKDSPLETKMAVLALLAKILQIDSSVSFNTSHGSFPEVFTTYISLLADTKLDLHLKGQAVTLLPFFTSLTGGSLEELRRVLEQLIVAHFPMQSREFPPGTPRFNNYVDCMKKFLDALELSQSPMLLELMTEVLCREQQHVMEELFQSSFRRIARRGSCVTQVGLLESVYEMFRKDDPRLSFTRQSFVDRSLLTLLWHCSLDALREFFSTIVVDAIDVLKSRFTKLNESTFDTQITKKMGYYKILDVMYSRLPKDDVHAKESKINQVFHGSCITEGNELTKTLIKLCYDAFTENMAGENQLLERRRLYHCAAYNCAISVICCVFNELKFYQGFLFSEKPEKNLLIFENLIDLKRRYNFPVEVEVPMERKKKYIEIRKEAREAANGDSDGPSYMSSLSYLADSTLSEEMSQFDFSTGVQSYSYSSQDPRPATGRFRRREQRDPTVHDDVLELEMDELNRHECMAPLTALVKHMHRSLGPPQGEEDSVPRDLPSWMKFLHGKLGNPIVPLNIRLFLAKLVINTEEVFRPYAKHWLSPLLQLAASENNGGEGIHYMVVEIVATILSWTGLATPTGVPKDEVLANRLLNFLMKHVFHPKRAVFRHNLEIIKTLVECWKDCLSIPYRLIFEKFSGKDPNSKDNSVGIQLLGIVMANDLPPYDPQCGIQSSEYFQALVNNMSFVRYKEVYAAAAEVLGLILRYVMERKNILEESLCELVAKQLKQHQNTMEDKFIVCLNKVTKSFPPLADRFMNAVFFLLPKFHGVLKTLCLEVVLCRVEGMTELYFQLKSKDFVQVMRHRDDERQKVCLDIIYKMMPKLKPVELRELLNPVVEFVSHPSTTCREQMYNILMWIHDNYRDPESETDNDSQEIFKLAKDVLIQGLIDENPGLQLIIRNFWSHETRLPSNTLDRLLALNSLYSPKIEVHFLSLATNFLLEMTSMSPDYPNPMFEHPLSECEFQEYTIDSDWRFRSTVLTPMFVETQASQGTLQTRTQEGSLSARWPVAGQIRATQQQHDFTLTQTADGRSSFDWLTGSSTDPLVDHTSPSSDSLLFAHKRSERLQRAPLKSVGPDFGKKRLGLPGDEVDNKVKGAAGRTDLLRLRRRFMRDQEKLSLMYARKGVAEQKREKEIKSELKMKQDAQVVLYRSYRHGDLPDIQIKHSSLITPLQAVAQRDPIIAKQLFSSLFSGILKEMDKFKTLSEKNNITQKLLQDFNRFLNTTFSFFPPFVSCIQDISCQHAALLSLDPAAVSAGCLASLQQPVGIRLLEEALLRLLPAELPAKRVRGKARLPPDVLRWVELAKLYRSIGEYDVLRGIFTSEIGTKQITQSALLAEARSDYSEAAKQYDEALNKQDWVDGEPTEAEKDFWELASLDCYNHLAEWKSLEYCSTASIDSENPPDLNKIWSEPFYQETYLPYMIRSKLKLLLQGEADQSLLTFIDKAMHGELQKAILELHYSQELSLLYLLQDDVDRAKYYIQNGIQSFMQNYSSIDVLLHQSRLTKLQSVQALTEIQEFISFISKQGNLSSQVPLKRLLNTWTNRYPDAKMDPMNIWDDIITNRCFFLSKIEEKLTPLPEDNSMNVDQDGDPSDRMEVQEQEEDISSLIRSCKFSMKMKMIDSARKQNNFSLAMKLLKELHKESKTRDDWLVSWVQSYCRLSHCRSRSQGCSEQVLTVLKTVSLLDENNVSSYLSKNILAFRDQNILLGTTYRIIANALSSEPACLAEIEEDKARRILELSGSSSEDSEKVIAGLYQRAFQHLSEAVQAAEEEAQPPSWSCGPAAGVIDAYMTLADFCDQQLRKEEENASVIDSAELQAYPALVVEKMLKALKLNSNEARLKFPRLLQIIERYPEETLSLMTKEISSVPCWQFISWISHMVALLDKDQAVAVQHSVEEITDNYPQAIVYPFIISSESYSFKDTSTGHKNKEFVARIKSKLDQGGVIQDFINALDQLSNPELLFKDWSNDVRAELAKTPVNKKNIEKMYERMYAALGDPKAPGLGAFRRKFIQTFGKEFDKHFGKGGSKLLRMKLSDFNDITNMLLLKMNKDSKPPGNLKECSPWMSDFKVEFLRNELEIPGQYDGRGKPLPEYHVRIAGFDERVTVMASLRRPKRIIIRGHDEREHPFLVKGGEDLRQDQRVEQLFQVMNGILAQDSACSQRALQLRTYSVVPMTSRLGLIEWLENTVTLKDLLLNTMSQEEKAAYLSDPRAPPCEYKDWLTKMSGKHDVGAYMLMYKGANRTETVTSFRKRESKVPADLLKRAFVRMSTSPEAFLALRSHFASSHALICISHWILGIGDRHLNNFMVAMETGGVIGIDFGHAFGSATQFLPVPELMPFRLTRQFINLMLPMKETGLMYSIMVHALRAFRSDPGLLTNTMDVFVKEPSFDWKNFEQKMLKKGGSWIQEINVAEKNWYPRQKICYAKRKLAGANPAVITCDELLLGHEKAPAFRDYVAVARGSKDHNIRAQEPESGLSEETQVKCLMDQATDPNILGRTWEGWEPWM
CLK3(h), sequence (P49761 whole entry): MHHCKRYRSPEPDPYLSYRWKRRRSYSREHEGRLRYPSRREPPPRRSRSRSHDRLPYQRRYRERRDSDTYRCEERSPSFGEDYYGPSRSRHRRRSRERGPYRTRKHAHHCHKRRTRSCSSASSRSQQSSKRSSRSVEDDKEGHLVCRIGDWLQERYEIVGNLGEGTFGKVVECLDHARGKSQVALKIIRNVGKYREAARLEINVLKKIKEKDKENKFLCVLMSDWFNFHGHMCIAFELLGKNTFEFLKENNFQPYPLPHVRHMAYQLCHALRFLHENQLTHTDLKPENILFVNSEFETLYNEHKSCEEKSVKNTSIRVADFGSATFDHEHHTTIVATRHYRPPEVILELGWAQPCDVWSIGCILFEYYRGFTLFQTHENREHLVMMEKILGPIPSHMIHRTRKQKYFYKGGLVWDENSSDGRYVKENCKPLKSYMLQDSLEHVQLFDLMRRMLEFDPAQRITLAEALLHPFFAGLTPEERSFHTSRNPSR
T10 sequence (Q16539 whole entry T106M): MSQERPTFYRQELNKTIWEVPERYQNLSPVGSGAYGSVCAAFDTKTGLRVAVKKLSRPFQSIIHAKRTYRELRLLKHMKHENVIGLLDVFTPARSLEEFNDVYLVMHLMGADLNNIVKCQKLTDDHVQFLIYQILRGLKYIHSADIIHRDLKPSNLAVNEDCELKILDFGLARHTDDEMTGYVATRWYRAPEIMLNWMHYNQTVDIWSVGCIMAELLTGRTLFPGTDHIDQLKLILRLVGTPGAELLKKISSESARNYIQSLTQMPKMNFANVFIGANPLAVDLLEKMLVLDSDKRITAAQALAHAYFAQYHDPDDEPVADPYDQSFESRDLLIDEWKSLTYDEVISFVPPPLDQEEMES

Turning to `C1=C(c2nc(-c3cnn(C4CCNCC4)c3)cn3cc(-c4ccccc4)nc23)CCOC1` [YL-939], the remaining activity at 10 µM at BrSK2(h) stood at 101%; on MAP4K3(h), 79%; on CaMKK2(h) it was 83%; on Ret(h) it was 123%; at DNA-PK(h) it was 94%; at Txk(h) it was 73%. Besides, the remaining activity at 10 µM at SAPK4(h) was 100%; on TrkA(h), 75%; at BrSK1(h), 91%; at ErbB4(h) it was 99%; at CHK1(h), 98%; on NEK11(h) it was 86%. The remaining activity at 10 µM amounted to 107% on SRPK1(h); 113% at PDGFRβ(h); 81% at Ret (V804L)(h); 94% on IRE1(h); 86% on NLK(h); 90% at AMPKα1(h). The remaining activity at 10 µM on CLK3(h) was 96%; on PKBα(h), 68%; at GCK(h) it was 76%; on SAPK2a(T106M)(h), 105%; on Flt4(h) it was 85%.
